Assay results from publication PMC11721939, “Novel tetrahydronaphthalen-1-yl-phenethyl ureas: synthesis and dual antibacterial-anticancer activities” (Journal of Enzyme Inhibition and Medicinal Chemistry, 2023).
Converted amounts (≈) assume the structure as drawn. Like-named read-outs stand apart in the source and are kept apart here.

Legend:
PCS-201-012 cells = system: PCS-201-012 cells; design: method as in PMID 27488500; details: fibroblast cells (PCS-201-012 column), cisplatin; read-out: Cytotoxic activity IC50; cited from earlier work
SH-SY5Y cells [1] = details: cited from earlier work
HeLa cells [2] = details: cited from earlier work
[3] = system: Enterococcus faecalis ATCC 49452; experiment: Disc diffusion method; format: cell-based; details: for zone of inhibition at 500 µM: ATCC49452, 500 µM; for zone of inhibition at 500 µM / zone of inhibition at 1000 µM: read-out: Disc diffusion test, inhibitory zone diameter; for zone of inhibition at 1000 µM: ATCC49452, 1000 µM
Protocol: (§1) The bacteria employed for evaluation included Acinetobacter baumannii ATCC 1605, Enterococcus faecalis ATCC 49452, Pseudomonas aeruginosa ATCC 9027, and Staphylococcus aureus MRSA ATCC 43300. These strains were sourced from the Molecular Biology and Genetics Laboratory at Erzurum Technical University. They were immersed in Mueller-Hinton Broth (MHB) and then incubated at a temperature of 37 °C for a duration of 16–24 h.
(§2) Bacteria were adjusted to a McFarland standardisation of 0.5, equivalent to a cell density of 1.5 × 10^8/ml, and were then introduced into MHB. Subsequently, a 100 μl volume of this bacterial mixture was spread onto Mueller-Hinton agar plates. Sterile empty discs were then treated with the formulated ureas at concentrations of 1000, 500, and 250 µM. Oflaxin ([…]) and netilmicin ([…]) were used as positive controls, while DMSO served as the negative control. The plates were then placed in an incubator at 37 °C for a period ranging from 24 to 72 h, depending on the optimal conditions. Post incubation, the diameter of the inhibition zones was gauged to determine the antibacterial efficacy. This entire process was replicated three times.

[4] = system: Acinetobacter baumannii ATCC 1605; experiment: Disc diffusion method; format: cell-based; details: for zone of inhibition at 250 µM: ATCC1605, 250 µM; for zone of inhibition at 250 µM / zone of inhibition at 500 µM / zone of inhibition at 1000 µM: read-out: Disc diffusion test, inhibitory zone diameter; for zone of inhibition at 500 µM: ATCC1605, 500 µM; for zone of inhibition at 1000 µM: ATCC1605, 1000 µM
Protocol: as §1, §2

[5] = system: Pseudomonas aeruginosa ATCC 9027; experiment: Disc diffusion method; format: cell-based; details: for zone of inhibition at 250 µM: ATCC9027, 250 µM; for zone of inhibition at 250 µM / zone of inhibition at 500 µM / zone of inhibition at 1000 µM: read-out: Disc diffusion test, inhibitory zone diameter; for zone of inhibition at 500 µM: ATCC9027, 500 µM; for zone of inhibition at 1000 µM: ATCC9027, 1000 µM
Protocol: as §1, §2

[6] = system: Staphylococcus aureus MRSA ATCC 43300; experiment: Disc diffusion method; format: cell-based; details: for zone of inhibition at 250 µM / zone of inhibition at 500 µM / zone of inhibition at 1000 µM: Staphylococcus aureus, read-out: Disc diffusion test, inhibitory zone diameter
Protocol: as §1, §2

[7] = system: Enterococcus faecalis ATCC 49452; experiment: Micro-well dilution assay (MIC); format: cell-based; details: for MIC: ATCC49452
Protocol: as §1
(§3) The synthesised ureas’ minimum inhibitory concentrations (MICs) against the bacterial samples were ascertained using the microdilution broth technique. Utilising a method of twofold serial dilutions, the ureas were diluted to concentrations spanning from […]. The bacterial turbidity was set to match the 0.5 McFarland standard. In the 96-well plates, each well received 100 μl of MHB and 5 μl of the bacteria being tested. For the negative control, 195 μl of MHB and 5 μl of the bacterial sample were added. The plate was then covered with a sterile seal and allowed to incubate for 24 h at a temperature of 37 °C. Post incubation, the growth of the bacteria was assessed at 600 nm using the Fluoroskan Ascent® FL. The MIC represented the smallest amount of the chemical that effectively halted bacterial growth. This procedure was conducted three times.

[8] = system: Acinetobacter baumannii ATCC 1605; experiment: Micro-well dilution assay (MIC); format: cell-based; details: for MIC: ATCC1605
Protocol: as §1, §3

[9] = system: Pseudomonas aeruginosa ATCC 9027; experiment: Micro-well dilution assay (MIC); format: cell-based; details: for MIC: ATCC9027
Protocol: as §1, §3

[10] = system: Staphylococcus aureus MRSA ATCC 43300; experiment: Micro-well dilution assay (MIC); format: cell-based
Protocol: as §1, §3

WST-8 cytotoxicity assay = format: cell-based; details: human, PCS-201-012 healthy primary dermal fibroblast cells, PCS-201-012 healthy fibroblast cells, WST-8, n = 4, read-out: Cytotoxic activity IC50
Protocol: (§4) The cells in culture were frequently sub-cultured, about 2–3 times weekly, until they reached a confluence of 80–90%. The experiments were organised into seven cell groups as follows: group I served as the control, while groups II through VII were pre-treated with varying dosages of the synthesised ureas (ranging from 12.5 µM to 500 µM). The cytotoxic potential of these ureas was assessed in vitro using the Cell Viability Detection Kit-8 (CVDK-8, Ecotech Biotechnology, Erzurum, Turkey), a method based on WST-8 quantification for human primary dermal fibroblasts and cervical cancer cells. Healthy fibroblast, HeLa, and SH-SY5Y cells were allocated in 96-well plates, with each well containing 5 × 10^3 cells in 100 µL of DMEM:F12 (supplemented with 1% penicillin/streptomycin and 10% FBS). After an overnight growth, these cells were exposed to specified concentrations of the synthesised ureas for a duration of 48 h at 37 °C in a 5% CO2 atmosphere. Cisplatin acted as the positive control with concentration gradients of 0–250 µM for HeLa cells and 0–20 µM for the SH-SY5Y cells. Post incubation, in sterile, dimly lit conditions, 10% WST-8 solution was added to every well and further incubated at 37 °C within 5% CO2 for another 3–4 h. The optical density of the 96-well plate was gauged at a 450 nm wavelength using a spectrophotometer (BioTek, EPOCH, Santa Clara, CA). The control group’s main purpose was to measure the absorbance of just the cells and the growth medium.

HeLa cells [11] = experiment: WST-8 cytotoxicity assay; format: cell-based, human; details: for IC50: Homo sapiens, HeLa cells, 48 h, WST-8, n = 4, read-out: Cytotoxic activity IC50; for SI value (HeLa cells): IC50 PCS-201-012 fibroblasts / IC50 HeLa, n = 4
Protocol: as §4

SH-SY5Y cells [12] = experiment: WST-8 cytotoxicity assay; format: cell-based, human; details: for IC50: Homo sapiens, SH-SY5Y, 48 h, WST-8, n = 4, read-out: Cytotoxic activity IC50; for SI value (SH-SY5Y cells): IC50 PCS-201-012 fibroblasts / IC50 SH-SY5Y, n = 4
Protocol: as §4

[13] = read-out: Cytotoxic activity IC50, cisplatin positive control
[14] = read-out: Cytotoxic activity IC50, melphalan control

Compound | zone of inhibition at 500 µM [3] [mm] | zone of inhibition at 1000 µM [3] [mm] | zone of inhibition at 250 µM [4] [mm] | zone of inhibition at 500 µM [4] [mm] | zone of inhibition at 1000 µM [4] [mm] | zone of inhibition at 250 µM [5] [mm] | zone of inhibition at 500 µM [5] [mm] | zone of inhibition at 1000 µM [5] [mm] | zone of inhibition at 250 µM [6] [mm] | zone of inhibition at 500 µM [6] [mm] | zone of inhibition at 1000 µM [6] [mm] | IC50 at 48 h (WST-8 cytotoxicity assay) [µM] | melting point [°C] | MIC [7] [µM] | MIC [8] [µM] | MIC [9] [µM] | MIC [10] [µM] | IC50 (HeLa cells [11]) [µM] | SI value (HeLa cells) (HeLa cells [11]) | IC50 (SH-SY5Y cells [12]) [µM] | further results
N.N.[Cl][Pt][Cl] [Cisplatin, cis-diammineplatinum(II) dichloride] |  |  |  |  |  |  |  |  |  |  |  |  |  |  |  |  |  |  |  |  | IC50 (PCS-201-012 cells): > 100 µM; IC50 (SH-SY5Y cells [1]; [13]): 10 µM; IC50 (HeLa cells [2]; [13]): > 50 µM
N[C@@H](Cc1ccc(N(CCCl)CCCl)cc1)C(=O)O [Melphalan, melphalan] |  |  |  |  |  |  |  |  |  |  |  |  |  |  |  |  |  |  |  |  | IC50 (SH-SY5Y cells [1]; [14]): 2.2 µM; IC50 (HeLa cells [2]; [14]): 61 µM
CCN[C@@H]1C[C@H](N)[C@@H](O[C@H]2OC(CN)=CC[C@H]2N)[C@H](O)[C@H]1O[C@H]1OC[C@](C)(O)[C@H](NC)[C@H]1O [NET30, netilmycin, reference compound] |  |  |  |  |  |  |  |  |  |  |  |  |  |  |  |  |  |  |  |  | Standard antibiotic disc, inhibitory zone diameter ([3]; 30 μg/disc): 9 mm; Standard antibiotic disc, inhibitory zone diameter ([4]; 30 μg/disc): 13 mm; Standard antibiotic disc, inhibitory zone diameter ([5]; 30 μg/disc): 16 mm; Standard antibiotic disc, inhibitory zone diameter ([6]; Staphylococcus aureus MRSA, 30 μg/disc): 21 mm; MIC of standard antibiotics [7]: 32 µg/mL; MIC of standard antibiotics [8]: 4 µg/mL; MIC of standard antibiotics [9]: 4 µg/mL; MIC of standard antibiotics [10]: 0.8 µg/mL
COc1ccc(CCNC(=O)NC2CCCc3c(OC)cccc32)cc1OC (stereo not shown) [Compound 17, 1-(3,4-Dimethoxyphenethyl)-3-(5-methoxy-1,2,3,4-tetrahydronaphthalen-1-yl)urea] | 7 | 10 | 6 | 8 | 15 | 7 | 10 | 10 | 8 | 13 | 14 | 380 | 168 to 170 | 0.97 (≈ 0.373 µg/mL) | 7.81 (≈ 3 µg/mL) | 7.81 (≈ 3 µg/mL) | 7.81 (≈ 3 µg/mL) | 251 | 1.51 | 9.7 | SI value (SH-SY5Y cells) (SH-SY5Y cells [12]): 39.08
COc1cccc(CCNC(=O)NC2CCCc3c(OC)cccc32)c1 (stereo not shown) [Compound 16, 1-(5-Methoxy-1,2,3,4-tetrahydronaphthalen-1-yl)-3-(3-methoxyphenethyl)urea] | 6 | 7 | 5 | 10 | 13 | 7 | 8 | 10 | 5 | 6 | 13 | > 500 | 155 to 157 | 3.9 (≈ 1.38 µg/mL) | 7.81 (≈ 2.77 µg/mL) | 7.81 (≈ 2.77 µg/mL) | 7.81 (≈ 2.77 µg/mL) | 32.4 | 15.4 | 19.1 | SI value (SH-SY5Y cells) (SH-SY5Y cells [12]): 26.10
